# Test results taken from patent US20030139431A1 (priority 2001, published 2003).
# Tests used:
# rNPFF2 [1] = molecular target: T1, rNPFF2 (Rattus norvegicus, UniProt Q9EQD2); assay: Binding affinity at cloned recombinant rat NPFF2 receptor
# T1 construct: expressed in transfected cells
# rNPFF1 [2] = molecular target: T2, rNPFF1 (Rattus norvegicus, UniProt Q9EP86); assay: Functional assay (agonist potency, intrinsic activity) at cloned rat NPFF1 receptor; format: cell-based; details: for rNPFF1 IA (intrinsic activity): percent of maximum response elicited by neuropeptide FF, rat NPFF1; for EC50: recombinant rat NPFF1
# T2 construct: expressed in transfected cells
# T2 sequence (Q9EP86 whole entry): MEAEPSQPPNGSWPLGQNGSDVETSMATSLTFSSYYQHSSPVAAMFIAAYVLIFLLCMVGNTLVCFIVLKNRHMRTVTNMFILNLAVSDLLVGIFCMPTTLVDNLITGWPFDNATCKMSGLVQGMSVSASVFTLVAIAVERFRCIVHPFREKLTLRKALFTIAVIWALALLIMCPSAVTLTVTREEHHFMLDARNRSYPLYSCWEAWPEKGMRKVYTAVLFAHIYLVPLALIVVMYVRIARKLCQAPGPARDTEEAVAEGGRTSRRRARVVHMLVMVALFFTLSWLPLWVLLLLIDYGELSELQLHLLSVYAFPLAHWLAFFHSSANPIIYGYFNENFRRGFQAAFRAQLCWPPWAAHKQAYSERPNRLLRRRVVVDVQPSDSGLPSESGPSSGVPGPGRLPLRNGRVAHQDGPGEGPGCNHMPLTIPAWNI
# Method: (§1) Intrinsic activity of a compound is measured as the percent of maximum response.
# rNPFF2 [3] = molecular target: T1, rNPFF2; assay: Functional assay (agonist potency, intrinsic activity) at cloned rat NPFF2 receptor; format: cell-based; details: for rNPFF2 IA (intrinsic activity): percent of maximum response elicited by neuropeptide FF, rat NPFF2; for EC50: recombinant rat NPFF2
# Method: as §1
# rNPFF1 [4] = molecular target: T2, rNPFF1; assay: Binding affinity at cloned recombinant rat NPFF1 receptor
# T1 sequence (Q9EQD2 whole entry): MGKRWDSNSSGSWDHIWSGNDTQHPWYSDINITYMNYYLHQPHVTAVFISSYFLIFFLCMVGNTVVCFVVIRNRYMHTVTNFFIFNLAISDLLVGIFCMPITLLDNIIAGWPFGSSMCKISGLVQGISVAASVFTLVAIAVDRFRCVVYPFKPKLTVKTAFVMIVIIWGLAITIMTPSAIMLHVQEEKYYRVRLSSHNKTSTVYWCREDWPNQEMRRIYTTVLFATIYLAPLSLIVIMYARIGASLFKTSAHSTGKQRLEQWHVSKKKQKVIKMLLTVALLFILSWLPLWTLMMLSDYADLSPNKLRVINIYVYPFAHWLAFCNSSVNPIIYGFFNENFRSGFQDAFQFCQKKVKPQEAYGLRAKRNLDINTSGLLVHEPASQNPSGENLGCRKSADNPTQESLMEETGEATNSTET
Structure (SMILES),Ki (rNPFF2 [1]),rNPFF1 IA (intrinsic activity) (rNPFF1 [2]),EC50 (rNPFF1 [2]),rNPFF2 IA (intrinsic activity) (rNPFF2 [3]),EC50 (rNPFF2 [3]),Ki (rNPFF1 [4])
"Cc1ccc2nc(NC(=N)N)nc(C)c2c1 [Compound 1002, N-(4,6-dimethyl-2-quinazolinyl)guanidine]",3920 nM,Inactive,> 10000 nM,24% NPFF,5620 nM,134 nM
"CCc1ccc2nc(NC(=N)N)nc(C)c2c1 [Compound 1003, N-(6-ethyl-4-methyl-2-quinazolinyl)guanidine]",1640 nM,Inactive,> 10000 nM,83% NPFF,392 nM,238 nM
"Cc1nc(NC(=N)N)nc2ccc(C(C)(C)C)cc12 [Compound 1004, N-(6-tert-butyl-4-methyl-2-quinazolinyl)guanidine]",1490 nM,36% NPFF,1470 nM,90% NPFF,440 nM,710 nM
"Cc1nc(NC(=N)N)nc2ccc(OCCCCCOc3ccccc3)cc12 [Compound 1005, N-4-methyl-6-[(5-phenoxypentyl)oxy]-2-quinazolinylguanidine]",2140 nM,Inactive,> 10000 nM,21% NPFF,3160 nM,316 nM
"Cc1nc(NC(=N)N)nc2cc(OCc3ccccc3)ccc12 [Compound 1006, N-[7-(benzyloxy)-4-methyl-2-quinazolinyl]guanidine]",1070 nM,15% NPFF,> 10000 nM,22% NPFF,1080 nM,410 nM
"CCCc1ccc2nc(NC(=N)N)nc(C)c2c1 [Compound 1008, N-(4-methyl-6-propyl-2-quinazolinyl)guanidine]",1120 nM,Inactive,> 10000 nM,85% NPFF,619 nM,155 nM
"CCCCCCCCc1ccc2nc(NC(=N)N)nc(C)c2c1 [Compound 1009, N-(4-methyl-6-octyl-2-quinazolinyl)guanidine]",703 nM,Inactive,–,22% NPFF,5620 nM,312 nM
"Cc1nc(NC(=N)N)nc2ccc(-c3ccccc3)cc12 [Compound 1010, N-(4-methyl-6-phenyl-2-quinazolinyl)guanidine]",3480 nM,Inactive,> 10000 nM,22% NPFF,> 10000 nM,311 nM
"COc1ccc2nc(NC(=N)N)nc(C)c2c1 [Compound 1011, N-(6-methoxy-4-methyl-2-quinazolinyl)guanidine]",> 10000 nM,Inactive,> 10000 nM,Inactive,> 10000 nM,201 nM
"CCCCOc1ccc2nc(NC(=N)N)nc(C)c2c1 [Compound 1012, N-(6-butoxy-4-methyl-2-quinazolinyl)guanidine]",4850 nM,Inactive,> 10000 nM,80% NPFF,1620 nM,733 nM
"Cc1nc(NC(=N)N)nc2ccc(Cl)cc12 [Compound 1013, N-(6-chloro-4-methyl-2-quinazolinyl)guanidine]",2020 nM,Inactive,> 10000 nM,52% NPFF,690 nM,332 nM
"Cc1nc(NC(=N)N)nc2cc(Br)ccc12 [Compound 1014, N-(7-bromo-4-methyl-2-quinazolinyl)guanidine]",3440 nM,Inactive,> 10000 nM,47% NPFF,2460 nM,300 nM
"Cc1cc2nc(NC(=N)N)nc(C)c2cc1C [Compound 1015, N-(4,6,7-trimethyl-2-quinazolinyl)guanidine]",1110 nM,Inactive,> 10000 nM,56% NPFF,272 nM,42 nM
"COc1cc2c(C)nc(NC(=N)N)nc2cc1C [Compound 1016, N-(6-methoxy-4,7-dimethyl-2-quinazolinyl)guanidine]",2500 nM,Inactive,> 10000 nM,74% NPFF,3160 nM,565 nM
"Cc1cc2nc(NC(=N)N)nc(C)c2cc1O [Compound 1017, N-(6-hydroxy-4,7-dimethyl-2-quinazolinyl)guanidine]",5920 nM,Inactive,> 10000 nM,23% NPFF,> 10000 nM,234 nM
"CCCCOc1cc2nc(NC(=N)N)nc(C)c2cc1OCCCC [Compound 1018, N-(6,7-dibutoxy-4-methyl-2-quinazolinyl)guanidine]",1300 nM,Inactive,> 10000 nM,Inactive,> 10000 nM,303 nM
"Cc1nc(NC(=N)N)nc2cc(F)c(F)cc12 [Compound 1019, N-(6,7-difluoro-4-methyl-2-quinazolinyl)guanidine]",2870 nM,Inactive,> 10000 nM,31% NPFF,2540 nM,57 nM
"CCc1ccc2c(C)nc(NC(=N)N)nc2c1 [Compound 1020, N-(7-ethyl-4-methyl-2-quinazolinyl)guanidine]",273 nM,Inactive,> 10000 nM,90% NPFF,695 nM,18 nM
"Cc1nc(NC(=N)N)nc2cc(C(C)C)ccc12 [Compound 1021, N-(7-isopropyl-4-methyl-2-quinazolinyl)guanidine]",881 nM,Inactive,> 10000 nM,76% NPFF,283 nM,56 nM
"CCOc1ccc2c(C)nc(NC(=N)N)nc2c1 [Compound 1024, N-(7-ethoxy-4-methyl-2-quinazolinyl)guanidine]",5590 nM,Inactive,> 10000 nM,Inactive,> 10000 nM,659 nM
"Cc1nc(NC(=N)N)nc2cc(OC(C)C)ccc12 [Compound 1025, N-[4-methyl-7-(isopropoxy)-2-quinazolinyl]guanidine]",4530 nM,Inactive,> 10000 nM,27% NPFF,3160 nM,253 nM
"Cc1nc(NC(=N)N)nc2ccc(Br)cc12 [Compound 1026, N-(6-bromo-4-methyl-2-quinazolinyl)guanidine]",> 10000 nM,Inactive,> 10000 nM,19% NPFF,> 10000 nM,802 nM
